Values of other authors in patent US12527751B2, “Oral thin film with high active agent loading” (LTS LOHMANN THERAPIE-SYSTEME AG, priority 2017, dated 2026).

Settings: compared with (R) ketamine

Q: For CNC1(c2ccccc2Cl)CCCCC1=O (racemic) [(S) ketamine, (S)-(±)-2-(2-chlorophenyl)-2-(methylamino)cyclohexan-1-one], which “Analgesic and anaesthetic potency relative to the (R) form” value is on record?
A: Its value is “approximately three times higher”.
